Where a name gives a salt, the structure may show the parent alone.
How the values were obtained:
Format in all cases: physicochemical
[1] = Thermodynamic aqueous solubility by HPLC; conditions: HPLC grade water, 25° C., 24 hours; second scale up material; listed as Comp. I HCl (formed using aqueous HCl) Form I
Procedure: The suspension was equilibrated at 25° C. for 24 hours. The suspension was then passed through a filter into an HPLC vial. The filtrate was then diluted by an appropriate factor. Quantification was executed by HPLC with reference to a standard solution of approximately 1 mg·mL^−1 in acetonitrile:water (1:1). Different volumes of the standard, diluted and undiluted sample solutions were injected. […] HPLC method parameters are described in Table 1 and Table 2.
Analysis was performed on an Agilent 1100 series liquid chromatography, equipped with a UV detector (DAD or VWD) @ 254 nm and using Chemstation Rev.B.01.03 software for data processing.
(§1) The solubility of the salts/co-crystals of Compound I prepared from the second scale up process was analyzed. The materials recovered after the solubility analysis were evaluated by XRPD to observe any form changes.

[2] = Gravimetric vapor sorption (GVS) hygroscopicity; conditions: for GVS weight gain / total weight uptake: at/after about 70% RH, 25° C.
Procedure: Sorption isotherms were obtained using a Hiden Isochema moisture sorption analyser (model IGAsorp), controlled by IGAsorp Systems Software v6.50.48. The sample was maintained at a constant temperature (25° C.) by the instrument controls. The humidity was controlled by mixing streams of dry and wet nitrogen, with a total flow of 250 mL·min^−1. The instrument was verified for relative humidity content by measuring three calibrated Rotronic salt solutions (10-50-88%). The weight change of the sample was monitored as a function of humidity by a microbalance (accuracy+/−0.005 mg). A defined amount of sample was placed in a tared mesh stainless steel basket under ambient conditions. A full experimental cycle consisted of two scans (sorption and desorption) at a constant temperature (25° C.) and 10% RH intervals over a 10-90% range (90 minutes for each humidity level).
The hygroscopicity of the esylate, mesylate, HCl, and sulfate salts/co-crystals of Compound I formed via the first scale up process was analyzed. All hygroscopicity experiments covered a wide range of humidity (0 to about 90% relative humidity) and were performed at about 25° C. to assess behavior.

[3] = XRPD form evaluation of materials recovered after solubility analysis; conditions: aqueous solubility analysis, second scale up material
Procedure: as §1

[4] = Dynamic vapor sorption (DVS) analysis
Excerpt: In view of the DVS analysis, compound I HCl Form I may be characterized as a monohydrate.

[5] = Approximate kinetic solubility in organic solvents; conditions: kinetic from dmso stock
Excerpt: A summary of the approximate kinetic solubility of Compound I HCl Form I in organic solvents, simulated biological fluids, and common pharmaceutical co-solvents is provided in Tables 8-10, respectively.

[6] = Solution stability in buffer solutions; conditions: buffer solutions pH about 1.2 to about 10.0, about 60° C., 2 days
Procedure: The stability of Compound I HCl Form I in buffer solutions over a pH range of about 1.2 to about 10.0 was also evaluated. These solutions were stored at about 60° C., and assayed for pH and % remaining at 2 days.

[7] = Polymorphic stability at elevated temperatures
[8] = Storage under vacuum at 40° C. and at 60° C.; conditions: 4 days, initial HPLC purity 99.3%
Procedure: Storage under vacuum at 40° C. and at 60° C.: Compound I HCl Form I was stored under vacuum at 40° C. and at 60° C. Initial HPLC purity was 99.3%.

[9] = Low humidity testing
Procedure: Low Humidity testing: Compound I HCl salt Form I was placed under N2 and checked by in situ XRPD at 20 min and 60 minutes. […] HCl salt Form I was placed under N2 bleeding for ˜60 min and TGA and DSC were measured. […] (peak temperature).

[10] = Kinetic solubility in SGF; conditions: listed as HC1 salt Form I
Procedure: (§2) Kinetic solubility testing was conducted as follows: About 40-55 mg material was weighed into a 5-mL EP pipe. 4 mL of water/bio-relevant media (SGF, FaSSIF, or FeSSIF) was added into the corresponding sample pipe (drug loading: ˜10 mg/mL calculated as freebase). The pipes were capped tightly and the material was verified to be in contact with the media. The sample vials were placed on a roller and start rolling at 37° C. (rate: 25 r/min). Samples were taken at 1, 2, 4, 24 h. For each time point, 1.0 mL of suspension was transferred into a 2-mL centrifuge tube and the samples were centrifuged. The supernatant was filtered via 0.45 μm PTFE membrane and solubility and pH were measured. An XRPD test on residual solids was conducted.

[11] = Kinetic solubility in FeSSIF
Procedure: as §2

solubility [1]: 350 µg/mL
GVS weight gain / total weight uptake [2]: about 5.9%
GVS weight gain / total weight uptake ([2]; listed as Comp. I HCl (aq., 1:2) Form I): About 5.9%
Crystalline form by XRPD post GVS analysis ([2]; exposure to humidity 0 to about 90% RH, about 25° C.): does not result in a form change
GVS mass lost ([2]; kept under about 100% dry atmosphere): about 0.5%
GVS weight variation ([2]; up to about 70% RH): does not vary significantly
Form change on solubility analysis (XRPD post vs pre) [3]: no form change
De-hydration and re-hydration behaviour (DVS) [4]: reversible
RH at which complete moisture re-uptake is observed (DVS) [4]: about 20 % RH
DVS weight ([4]; below about 10% RH): up to 3.5%
solubility kinetic ([5]; Acetone, MeCN, IPA, EtOAc, THF, Dioxane, DCM, organic solvent or mixture): < 100 µg/mL
solubility kinetic ([5]; DMF, PEG300, organic solvent or mixture): 1000 to 10000 µg/mL
solubility kinetic ([5]; DMSO, organic solvent or mixture): 10000 to 33300 µg/mL
solubility kinetic ([5]; Methanol, Ethanol, PG, Safflower Seed Oil, Tween 80, organic solvent or mixture): 100 to 1000 µg/mL
pH at which most stable in solution (% remaining) [6]: about 4.5
Crystalline form after dry-heating (XRPD, DSC, proton NMR) ([7]; about 50° C., about 72 hours): did not change the crystalline form
Form under N2 by in situ XRPD ([9]; N2 bleeding for 20 min, 10.2% RH): A new form was observed
Solubility (mg/mL) 1 h ([10]; SGF, 37° C., 1 h, drug loading ~10 mg/mL as freebase): 0.041 mg/mL
Solubility (mg/mL) 2 h ([10]; SGF, 37° C., 2 h): 0.039 mg/mL
Solubility (mg/mL) 4 h ([10]; SGF, 37° C., 4 h): 0.036 mg/mL
Solubility (mg/mL) 24 h ([10]; SGF, 37° C., 24 h): 0.035 mg/mL
Final Form ([10]; XRPD of residual solids, SGF, 1 h, 2 h, 4 h, 24 h): HC1 salt Form I
pH 1 h ([10]; supernatant, SGF (native pH 1.8), 1 h): 1.9
pH 2 h ([10]; supernatant, SGF (native pH 1.8), 2 h): 1.9
pH 4 h ([10]; supernatant, SGF (native pH 1.8), 4 h): 2.0
pH 24 h ([10]; supernatant, SGF (native pH 1.8), 24 h): 2.0
Kinetic solubility in FeSSIF (qualitative) ([11]; 37° C.): favorable kinetic solubility
Solubility (mg/mL) 1 h ([11]; 37° C., 1 h, drug loading ~10 mg/mL as freebase, listed as HC1 salt Form I): 0.049 mg/mL
Solubility (mg/mL) 2 h ([11]; 37° C., 2 h, listed as HC1 salt Form I): 0.031 mg/mL
Solubility (mg/mL) 4 h ([11]; 37° C., 4 h, listed as HC1 salt Form I): 0.010 mg/mL
Solubility (mg/mL) 24 h ([11]; 37° C., 24 h, listed as HC1 salt Form I): 0.0072 mg/mL
Final Form 2 h, 4 h, 24 h ([11]; XRPD of residual solids, 2 h, 4 h, 24 h): Freebase Form II
pH 1 h ([11]; supernatant, 1 h, listed as HC1 salt Form I): 4.9
pH 2 h ([11]; supernatant, 2 h, listed as HC1 salt Form I): 4.7
pH 4 h ([11]; supernatant, 4 h, listed as HC1 salt Form I): 4.7
pH 24 h ([11]; supernatant, 24 h, listed as HC1 salt Form I): 4.5
SMILES: CCS(=O)(=O)N1CCN(c2ccc(Nc3ncc(C(N)=O)c(NC4CC4)n3)cc2)CC1 [Compound I HCl Form I, 4-(cyclopropylamino)-2-(4-(4-(ethylsulfonyl)piperazin-1-yl)phenylamino)pyrimidine-5-carboxamide]
DVS moisture uptake ([4]; between about 40% and about 90% RH): minimal moisture uptake with no hysteresis
Polymorphism after re-hydrating post-TGA material (DSC) ([7]; 3 days at about 60% RH): no gross effect upon the polymorphism, but amorphous content did appear
Crystalline form after heating inside TGA ([7]; up to about 120° C. until approximately 3% weight loss): slight loss of crystallinity, but without a new form appearing
Form change / HPLC purity on storage under vacuum ([8]; 40° C.): No form change or decrease in purity by HPLC
Form change / HPLC purity on storage under vacuum ([8]; 60° C.): No form change or decrease in purity by HPLC
Form after re-exposure to ambient conditions ([9]; after N2 bleeding): converted back to HCl salt Form I quickly

— patent publication US11713309B2, “Solid forms of Cerdulatinib” (Alexion Pharmaceuticals, Inc., priority 2018, dated 2023)
